From patent publication US20220257774A1, “AROMATIC AMINE AR AHD BET TARGETING PROTEIN DEGRADATION CHIMERA COMPOUND AND USE” (HINOVA PHARMACEUTICALS INC., priority 2019, published 2022)
pIC50: −log10 of the molar value.

Each molecule was assayed on LNCaP/AR cells (assay: Inhibition of the proliferation of LNCap/AR cells (CCK-8)). Conditions: 144 h; LNCaP/AR cells, 6 days culture, CCK-8; read-out: LNCap/AR IC50.
Type: cell-based
Outline: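 LNCaP/AR cells (1000/well, RPMI1640 + 10% FBS) were treated for 6 days at 37 °C with 9-point 3-fold dilutions from 10 μM final, 0.1% DMSO, in duplicate. Viability was read by CCK-8 absorbance at 450 nm after 1 h, and IC50 came from a dose-response-inhibition fit.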

SMILES | pIC50
Cc1ccc(-c2c(C)noc2C)cc1N(c1ccc(C2(C#N)CC2)cc1)C1CN(CC2CCN(c3ccc4c(c3)C(=O)N(C3CCC(=O)NC3=O)C4=O)CC2)C1 (stereo not drawn) [Compound 34, 1-(4-((5-(3,5-Dimethylisoxazol-4-yl)-2-methylphenyl) (1-((1-(2-(2,6-dioxopiperidin-3-yl)-1,3-dioxoisoindolin-5-yl)piperidin-4-yl)methyl)azetidin-3-yl)amino)phenyl)cyclopropane-1-nitrile] | < 5.70
Cc1ccc(-c2c(C)noc2C)cc1N(CCC(C)CCNc1cc2c(cc1F)C(=O)N(C1CCC(=O)NC1=O)C2)c1ccc(C2(C#N)CC2)cc1 (stereo not drawn) [Compound 191, 1-(4-((5-(3,5-dimethylisoxazol-4-yl)-2-methylphenyl)(5-((2-(2,6-dioxopiperidin-3-yl)-6-fluoro-1-oxoisoindolin-5-yl)amino)-3-methylpentanyl)amino)phenyl)cyclopropane-1-carbonitrile] | < 5.70
Cc1ccc(-c2c(C)noc2C)cc1N(CCCCCOCC(=O)N[C@H](C(=O)N1C[C@H](O)C[C@H]1C(=O)N[C@@H](C)c1ccc(-c2scnc2C)cc1)C(C)(C)C)c1ccc(-n2ccnn2)c(Br)c1 [Compound 19] | > 7.00
CC(=O)O[C@@H]1C[C@@H](C(=O)N[C@@H](C)c2ccc(-c3scnc3C)cc2)N(C(=O)[C@@H](NC(=O)COCCCCCN(c2ccc(-n3ccnc3)cc2)c2cc3c(C)noc3cc2C)C(C)(C)C)C1 [Compound 17, (3R,5S)-1-((S)-2-(2-((5-((4-(1H-imidazol-1-yl)phenyl)(3,6-dimethylbenzo[d]isoxazol-5-yl)amino)pentyl)oxy)acetamido)-3,3-dimethylbutyryl)-5-((S)-1-(4-(4-methylthiazol-5-yl)phenyl)ethyl)carbamoyl)pyrrolidine-3-yl acetate] | < 5.70
Cc1ccc(-c2c(C)noc2C)cc1N(CCCCCOCC(=O)N[C@H](C(=O)N1C[C@H](O)C[C@H]1C(=O)N[C@@H](C)c1ccc(-c2scnc2C)cc1)C(C)(C)C)c1ccc(Br)cc1 [Compound 26, (2S,4R)-1-((S)-2-(2-((5-((4-Bromophenyl)(5-(3,5-Dimethylisoxazol-4-yl)-2-methylphenyl)amino)pentyl)oxy)acetamido)-3,3-dimethylbutyryl)-4-hydroxy-N—((S)-1-(4-(4-methylthiazol-5-yl)phenyl)ethyl)pyrrolidine-2-formamide] | 6.30 to 7.00
CC(=O)O[C@@H]1C[C@@H](C(=O)N[C@@H](C)c2ccc(-c3scnc3C)cc2)N(C(=O)[C@@H](NC(=O)CCN2CCC(CN(c3ccc(-n4ccnc4)c(Br)c3)c3cc(-c4c(C)noc4C)ccc3C)CC2)C(C)(C)C)C1 [Compound 99, (3R,5S)-1-((S)-2-(3-(4-(((3-Bromo-4-(1H-imidazol-1-yl)phenyl)(5-(3,5-dimethylisoxazol-4-yl)-2-methylphenyl)amino)methyl)piperidin-1-yl)propionamide)-3,3-dimethylbutyryl)-5-(((S)-1-(4-(4-methylthiazol-5-yl)phenyl)ethyl)carbamoyl)pyrrolidine-3-yl acetate] | 5.70 to 6.30

Second part, the molecule after the results:

pIC50 | SMILES
5.70 to 6.30 | Cc1ccc(-c2c(C)noc2C)cc1N(CC1CC2(CCN(c3cc4c(cc3F)C(=O)N(C3CCC(=O)NC3=O)C4=O)CC2)C1)c1ccc(C2(C#N)CC2)cc1 (stereo not drawn) [Compound 154]
< 5.70 | Cc1ccc(-c2c(C)noc2C)cc1N(CCCCCCNc1cccc2c1CN(C1CCC(=O)NC1=O)C2=O)c1ccc(-n2ccnc2)c(Br)c1 (stereo not drawn) [Compound 118, 3-(4-((6-((3-Bromo-4-(1H-imidazol-1-yl)phenyl)(5-(3,5-dimethylisoxazol-4-yl)-2-methylphenyl)amino)hexyl)amino)-1-oxoisoindolin-2-yl)piperidine-2,6-dione]
< 5.70 | Cc1ccc(-c2c(C)noc2C)cc1N(CCOCCOCC(=O)N[C@H](C(=O)N1C[C@H](O)C[C@H]1C(=O)N[C@@H](C)c1ccc(-c2scnc2C)cc1)C(C)(C)C)c1ccc(-n2ccnc2)c(Br)c1 [Compound 55]
5.70 to 6.30 | Cc1ccc(-c2c(C)noc2C)cc1N(C[C@H]1CC[C@H](CNc2cc3c(cc2F)C(=O)N(C2CCC(=O)NC2=O)C3=O)CC1)c1ccc(C2(C#N)CC2)cc1 (stereo partly drawn) [Compound 150]
5.70 to 6.30 | CC(=O)O[C@@H]1C[C@@H](C(=O)N[C@@H](C)c2ccc(-c3scnc3C)cc2)N(C(=O)[C@@H](NC(=O)COCCN2CCC(CN(c3ccc(-n4ccnc4)c(Br)c3)c3cc(-c4c(C)noc4C)ccc3C)CC2)C(C)(C)C)C1 [Compound 50, (3R,5S)-1-((S)-2-(2-(4-((3-bromo-4-(1H-imidazol-1-yl)phenyl) (5-(3,5-dimethylisoxazol-4-yl)-2-methylphenyl)amino)methyl)piperidin-1-yl)ethoxy)acetamido)-3,3-dimethylbutyryl)-5-((S)-1-(4-methylthiazol-5-yl)phenyl)ethyl)carbamoyl)pyrrolidine-3-yl acetate]
6.30 to 7.00 | CC(=O)O[C@@H]1C[C@@H](C(=O)N[C@@H](C)c2ccc(-c3scnc3C)cc2)N(C(=O)[C@@H](NC(=O)CN2CCC(CCCN(c3ccc(-n4ccnc4)c(Br)c3)c3cc(-c4c(C)noc4C)ccc3C)CC2)C(C)(C)C)C1 [Compound 142, (3R,5S)-1-((S)-2-(2-(4-(3-((3-Bromo-4-(1H-imidazol-1-yl)phenyl)(5-(3,5-4-yl)-2-methylphenyl)amino)propyl)piperidin-1-yl)acetamido)-3,3-dimethylbutyryl)-5-(((S)-1-(4-(4-methylthiazol-5-yl)phenyl)ethyl)carbamoyl)pyrrolidinyl-3-acetate]
6.30 to 7.00 | CC(=O)O[C@@H]1C[C@@H](C(=O)N[C@@H](C)c2ccc(-c3scnc3C)cc2)N(C(=O)[C@@H](NC(=O)COCCCCCN(c2ccc(-n3cnnc3)cc2)c2cc(-c3c(C)noc3C)ccc2C)C(C)(C)C)C1 [Compound 94]
6.30 to 7.00 | CC(=O)O[C@@H]1C[C@@H](C(=O)N[C@@H](C)c2ccc(-c3scnc3C)cc2)N(C(=O)[C@@H](NC(=O)COCCCCCN(c2ccc(-n3cncn3)cc2)c2cc(-c3c(C)noc3C)ccc2C)C(C)(C)C)C1 [Compound 92, (3R,5S)-1-((S)-2-(2-((5-((4-(1H-1,2,4-triazol-1-yl)phenyl)(5-(3,5-dimethylisoxazol-4-yl)-2-methylphenyl)amino)pentyl)oxy)acetylamino)-3,3-dimethylbutyryl)-5-(((S)-1-(4-(4-methylthiazol-5-yl)phenyl)ethyl)aminoformyl)pyrrolidinyl-3-yl acetate]

Same assay, conditions: LNCaP/AR, 144 h, read-out: LNCap/AR IC50

SMILES | pIC50
CC(=O)O[C@@H]1C[C@@H](C(=O)N[C@@H](C)c2ccc(-c3scnc3C)cc2)N(C(=O)[C@@H](NC(=O)COCCCCCN(c2ccc(F)c(-n3ccnc3)c2)c2cc(-c3c(C)noc3C)ccc2C)C(C)(C)C)C1 [Compound 15] | < 5.70
CCN(c1ccc(C#N)c(Cl)c1)c1cc(-c2nn(CCCCCOCC(=O)N[C@H](C(=O)N3C[C@H](O)C[C@H]3C(=O)N[C@@H](C)c3ccc(-c4scnc4C)cc3)C(C)(C)C)cc2C)ccc1C [Compound 2] | < 5.70
Cc1ccc(-c2c(C)noc2C)cc1N(CCCCCOCC(=O)N[C@H](C(=O)N1C[C@H](O)C[C@H]1C(=O)N[C@@H](C)c1ccc(-c2scnc2C)cc1)C(C)(C)C)c1ccc(-n2ccnc2)c(C(F)(F)F)c1 [Compound 21, (2S,4R)-1-((S)-2-(2-((5-((4-(1H-imidazol-1-yl)-3-(trifluoromethyl)phenyl)(5-(3,5-dimethylisoxazol-4-yl)-2-methylphenyl)amino)pentyl)oxy)acetamido)-3,3-dimethylbutyryl)-4-hydroxy-N—((S)-1-(4-(4-methylthiazol-5-yl)phenyl)ethyl)pyrrolidine-2-carboxamide] | 5.70 to 6.30
CC(=O)O[C@@H]1C[C@@H](C(=O)N[C@@H](C)c2ccc(-c3scnc3C)cc2)N(C(=O)[C@@H](NC(=O)COCCCCCN(c2ccc(-n3ccnc3)c(F)c2)c2cc(-c3c(C)noc3C)ccc2C)C(C)(C)C)C1 [Compound 13, (3R,5S)-1-((S)-2-(2-((5-((3-fluoro-4-(1H-imidazol-1-yl)phenyl)(5-(3,5-dimethylisoxazol-4-yl)-2-methylphenyl)amino)n-pentyl)oxy)acetylamino)-3,3-dimethylbutyryl)-5-(((S)-1-(4-(4-methylthiazol-5-yl)phenyl)ethyl)formylamino)pyrrolidinyl-3-acetate] | < 5.70

The molecules below were run on 22RV1 cells (assay: Inhibition of the proliferation of drug-resistant prostate cancer cell 22RV1 (CCK-8)). Conditions: Homo sapiens; 22RV1 cells (enzalutamide-resistant), same method.
Type: cell-based
Protocol: (1) Experimental materials and instruments: LNCaP/AR cell line and 22RV1 cell line (provided by Sichuan Kangcheng Biotechnology Co., Ltd.) Fetal bovine serum FBS (Gibco, Cat. No. 10099-141) 0.01M PBS (Biosharp, Cat. No. 162262) RIPM1640 medium (Hyclone, Cat. No. 308090.01) Penicillin-Streptomycin (Hyclone, Cat. No. SV30010) Cell counting kit-8 (Signalway Antibody, Cat. No. CP002) DMSO (Sigma, Cat. No. D5879) Centrifuge Tube, 15 ml (Excell Bio, Cat. No. CS015-0001) Cell Culture Dish, (Excell Bio, Cat. No. CS016-0128) 96-well cell culture plate (Corning, Cat. No. 3599) Microplate reader (Thermo Multiskan MK3 type)
a. Preparation of Buffer Cell culture medium: RIPM1640 medium, 10% FBS, 1% Pen Strep: PBS buffer: PBS powder was dissolved in 2 L of ultrapure water and sterilized. b. Experimental Procedures 1) LNCaP/AR cells were subcultured in cell culture media, and then the cells in good growth condition were seeded in a 96-well plate at 80 μL/well (1000 cells/well), and cultured overnight in a 37° C., 5% CO2 cell incubator. 2) The drug was prepared into a 10 mM stock solution with dimethyl sulfoxide (DMSO). Prior to use, the stock solution was diluted in a ratio of […] with DMSO, and then diluted at a 3-fold gradient to obtain 9 serial concentrations. Then, each concentration of compound was further diluted in a ratio of 1:200 with the culture medium (to ensure that the DMSO concentration in the culture system was 0.1%), and two wells were set for each concentration. 20 μL of the diluted compound solution was added to the well of the cell culture (with a final concentration of 10 μM, 3.3 μM, 1.1 μM . . . ), and then the plate was gently tapped to thoroughly mix. In addition, the experiment included 3 negative control wells only containing cells and 3 blank control wells only containing culture medium (6 wells were each added with DMSO diluted in a ratio of 1:200 with 20 μL of culture medium). c. Result Detection: 1) After culturing for 6 days, 10 μL of CCK-8 was added to each well, and the plate was further incubated for 1 h in a 37° C., 5% CO2 cell incubator. 2) The absorbance (OD value) was measured at 450 nm with a multifunctional microplate reader. 3) The data was analyzed by the Dose-response-inhibition equation in the software GraphPad Prism5, and the IC50 value was obtained. 2. Biological assay of the inhibition on the proliferation of other drug-resistant prostate cancer cells
The same test method was used to determine the inhibitory activity of the compound according to the present invention against drug-resistant prostate cancer cell 22RV1.

pIC50 | SMILES
< 5.70 | Cc1ccc(-c2c(C)noc2C)cc1N(c1ccc(C2(C#N)CC2)cc1)C1CN(CC2CCN(c3ccc4c(c3)C(=O)N(C3CCC(=O)NC3=O)C4=O)CC2)C1 (stereo not drawn) [Compound 34, 1-(4-((5-(3,5-Dimethylisoxazol-4-yl)-2-methylphenyl) (1-((1-(2-(2,6-dioxopiperidin-3-yl)-1,3-dioxoisoindolin-5-yl)piperidin-4-yl)methyl)azetidin-3-yl)amino)phenyl)cyclopropane-1-nitrile]
6.30 to 7.00 | Cc1ccc(-c2c(C)noc2C)cc1N(CC1CC2(CCN(c3cc4c(cc3F)C(=O)N(C3CCC(=O)NC3=O)C4=O)CC2)C1)c1ccc(C2(C#N)CC2)cc1 (stereo not drawn) [Compound 154]
5.70 to 6.30 | Cc1ccc(-c2c(C)noc2C)cc1N(CCC(C)CCNc1cc2c(cc1F)C(=O)N(C1CCC(=O)NC1=O)C2)c1ccc(C2(C#N)CC2)cc1 (stereo not drawn) [Compound 191, 1-(4-((5-(3,5-dimethylisoxazol-4-yl)-2-methylphenyl)(5-((2-(2,6-dioxopiperidin-3-yl)-6-fluoro-1-oxoisoindolin-5-yl)amino)-3-methylpentanyl)amino)phenyl)cyclopropane-1-carbonitrile]
